In publication PMC4577729, “7-(Pyrazol-4-yl)-3H-imidazo[4,5-b]pyridine-based derivatives for kinase inhibition: Co-crystallisation studies with Aurora-A reveal distinct differences in the orientation of the pyrazole N1-substituent” (Bioorganic & Medicinal Chemistry Letters, 2015):
Several values for one entry are separate records, joined by “and”; a condition that tells them apart may be missing. Equal entries are not always repeated.

Key:
[1] = Human liver microsomal stability; assay type: in vitro ADME; conditions: percentage of compound metabolised after a 30 min incubation, human liver microsomes
Protocol: (§1) [18] MLM and HLM microsomal stabilities were determined as described in Ref. [12].

Aurora A = target: T1, Aurora A (Homo sapiens, UniProt O14965); experiment: Aurora-A microfluidic kinase assay; assay type: biochemical; conditions: for IC50: biochemical, mean of two determinations or mean ±SD for n > 2; for fold more potent on Aurora-A relative to Aurora-B: ratio of biochemical IC50s
T1 sequence (O14965 1-403): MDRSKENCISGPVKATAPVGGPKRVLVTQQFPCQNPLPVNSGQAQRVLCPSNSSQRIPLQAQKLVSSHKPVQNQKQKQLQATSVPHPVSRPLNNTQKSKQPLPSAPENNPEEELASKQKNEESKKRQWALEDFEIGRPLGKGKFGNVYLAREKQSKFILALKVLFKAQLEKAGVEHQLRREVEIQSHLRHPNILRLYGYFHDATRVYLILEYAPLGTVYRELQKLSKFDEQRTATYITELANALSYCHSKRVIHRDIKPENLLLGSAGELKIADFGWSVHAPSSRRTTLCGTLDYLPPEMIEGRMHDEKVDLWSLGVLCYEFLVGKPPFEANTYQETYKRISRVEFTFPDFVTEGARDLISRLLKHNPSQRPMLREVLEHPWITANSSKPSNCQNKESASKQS
From the text: (§2) As part of our medicinal chemistry programme to discover selective inhibitors of Aurora-A,[12] we introduced the 1-benzyl-1H-pyrazol-4-yl moiety at C7 of the imidazo[4,5-b]pyridine scaffold to provide 7a (Table 1). We previously reported 1,3-dimethyl-1H-pyrazol-4-yl as a preferred substituent at the C2 position of the imidazo[4,5-b]pyridine scaffold[11] and this moiety was therefore incorporated into the design of 7a and analogues presented in this study. […] This in vitro profile prompted us to investigate this C7-pyrazole substituted imidazo[4,5-b]pyridine subseries in more detail. Firstly, we attempted to increase biochemical potency against Aurora-A, and also to improve microsomal stability.
(§3) [17] Aurora-A and Aurora-B IC50 values were determined by using a microfluidic assay which monitors the separation of a phosphorylated product from its substrate, as described in Ref. [12].

[2] = Protein binding in microsomal incubations (MLM); assay type: in vitro ADME, mouse
Protocol: (§4) For a better understanding of the microsomal stability data, the protein binding for 7a, 7d and 7e in microsomal incubations was measured. The percentage of 7a unbound in MLM and HLM was determined as 6.71 and 4.89, respectively. Compounds 7d and 7e were more highly bound: for 7d the percentage unbound was 0.50 in both MLM and HLM and for 7e was 0.16 and 0.10, respectively. […] The potent cell-based activity prompted us to investigate kinome selectivity profiles for this class of compound by screening 7a and 7d in a 102-kinase panel at a concentration of 1 μM.[20] […] The Gini coefficient for compound 3 was reported as 0.719,[12] and the corresponding value for compound 1 is 0.560. To understand the potential for further improvement, we obtained the crystal structure of 7a bound to Aurora-A[22] (Fig. 3, Table S3, Supplementary data). […] Similar to crystal structures of previous compounds 1, 15 and 16 (Figs. 1 and 2; compounds 51 and 40c in Ref. [10], and compound 21a in Ref. [11], respectively) the N-benzyl substituent on the C7-pyrazole is oriented towards the P-loop, making Van der Waals contacts with Val147 and Gly142 (Fig. 3).

[3] = Mouse liver microsomal stability; assay type: in vitro ADME; conditions: percentage of compound metabolised after a 30 min incubation, mouse liver microsomes
Protocol: as §1

[4] = Protein binding in microsomal incubations (HLM); assay type: in vitro ADME, human
Protocol: as §4

Aurora B = Aurora B (Homo sapiens, UniProt Q96GD4); experiment: Aurora-B microfluidic kinase assay; conditions: biochemical; mean of two determinations or mean ±SD for n > 2
Aurora B, sequence (Q96GD4 whole entry): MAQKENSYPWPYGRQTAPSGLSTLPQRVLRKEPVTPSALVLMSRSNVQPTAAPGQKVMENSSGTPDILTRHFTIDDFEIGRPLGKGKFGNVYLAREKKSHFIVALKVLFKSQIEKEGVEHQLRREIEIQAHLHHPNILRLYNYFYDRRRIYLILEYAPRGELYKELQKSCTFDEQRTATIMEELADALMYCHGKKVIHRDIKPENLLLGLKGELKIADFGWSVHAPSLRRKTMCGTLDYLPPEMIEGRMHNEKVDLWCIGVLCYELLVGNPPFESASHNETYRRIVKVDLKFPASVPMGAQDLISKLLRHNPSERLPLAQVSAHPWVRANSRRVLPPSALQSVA
From the text: as §2, §3

SMILES | HLM % met/30 min [1] | IC50 (Aurora A) [µM] | percentage unbound in MLM [2] [%] | MLM % met/30 min [3] | percentage unbound in HLM [4] [%] | IC50 (Aurora B) [µM] | fold more potent on Aurora-A relative to Aurora-B (Aurora A) [fold]
Cc1nn(C)cc1-c1nc2c(-c3cnn(-c4ccc(F)cc4)c3)c(Cl)cnc2[nH]1 [Compound 7e] | 20% | > 10 | 0.16 | 31% | 0.10 | > 10 | 
Cc1nn(C)cc1-c1nc2c(-c3cnn(Cc4cccc(C(=O)N(C)C)c4)c3)c(Cl)cnc2[nH]1 [Compound 14a] | 72% and 72/72% | 0.036 |  | 72/72% |  | 0.296 | 8
Cc1nn(C)cc1-c1nc2c(-c3cnn(Cc4cccc(C(=O)N5CCN(C)CC5)c4)c3)c(Cl)cnc2[nH]1 [Compound 14b] | 87% | 0.046 |  | 97% |  | 0.235 | 5
Cc1nn(C)cc1-c1nc2c(-c3cnn(Cc4ccccc4C(=O)N4CCN(C)CC4)c3)c(Cl)cnc2[nH]1 [Compound 14c] | 82% | 0.126 |  | 98% |  | 0.354 | 
